Reference: article PMC11129975, “A first-in-human phase I study of TAS-117, an allosteric AKT inhibitor, in patients with advanced solid tumors” (Cancer Chemotherapy and Pharmacology, 2024)

Assays:
[1] = test system: advanced or metastatic solid tumors; assay: Antitumor activity, best overall response by RECIST version 1.1; assay type: in vivo, human
Procedure: The phosphorylation status of PRAS40 in the blood was measured with an electrochemiluminescence detection assay using a Meso Scale Discovery instrument (Meso Scale Diagnostics, Rockville, MD, US). For efficacy, solid tumors were assessed using Response Evaluation Criteria in Solid Tumors (RECIST; version 1.1).

[2] = parameters: method as in data on file, Taiho Pharmaceutical Co., Ltd.; conditions: ref data on file, Taiho Pharmaceutical Co., Ltd., cited from earlier work
[3] = test system: AKT; assay: Ratio of pPRAS40/total PRAS40 in platelet-rich plasma (electrochemiluminescence); assay type: in vivo, human; conditions: at any time point; DEP, RMP and SAP; dose levels 2 to 5 (8 to 32 mg/body/day)
Procedure: Blood samples for pharmacokinetic analysis were collected immediately prior to dosing (0 h) and at 0.5, 1, 2, 3, 4, 6, 8, 12, and 24 h post-dose on Day 1 and Day 21 of Cycle 1 for patients in the DEP (QD dosing). For patients who received intermittent dosing regimens, blood was collected immediately prior to dosing (0 h) and at 1, 2, 3, 4, 6, 8, 10, and 24 h post-dose on Cycle 1 Day 1; immediately prior to dosing (0 h) on Cycle 1 Days 3, 4, and 8; and immediately prior to dosing (0 h) and at 1, 2, 3, 4, 6, 8, 10, 24, 48, and 96 h post-dose on Cycle 1 Day 18. […]
The pharmacodynamic activity of TAS-117 for AKT inhibition was evaluated by the change in the ratio of pPRAS40 (threonine 246) to total PRAS40 in platelet-rich plasma samples before and after TAS-117 administration. The phosphorylation status of PRAS40 in the blood was measured with an electrochemiluminescence detection assay using a Meso Scale Discovery instrument (Meso Scale Diagnostics, Rockville, MD, US). For efficacy, solid tumors were assessed using Response Evaluation Criteria in Solid Tumors (RECIST; version 1.1). Computed tomography scans were evaluated at baseline, every 6 weeks after initiating TAS-117 administration, and at the time of study discontinuation.

[4] = test system: multiple tumor cell lines derived from human cancers; parameters: method as in data on file, Taiho Pharmaceutical Co., Ltd.; conditions: breast, ovarian, gastric, endometrial and myeloma lines; ref data on file, Taiho Pharmaceutical Co., Ltd.; cited from earlier work
[5] = RMP (intermittent dosing) Level 4 (24 mg) n = 6
[6] = RMP (intermittent dosing) Level 5 (32 mg) n = 4
[7] = SAP (intermittent dosing) Cohort 1 Level 4 n = 16
[8] = SAP (intermittent dosing) Cohort 2 Level 4 n = 7
[9] = SAP (intermittent dosing) Cohort 3 Level 4 n = 20

What does the source list for `C[C@]1(O)C[C@@](N)(c2ccc(-c3nc4n(c3-c3ccccc3)COc3ccncc3-4)cc2)C1` [TAS-117]?
Best overall response: CR ([1]; DEP (QD) Level 1 (4 mg) n = 2): 0 n (%); Best overall response: NE ([1]; DEP (QD) Level 1 (4 mg) n = 2): 0 n (%); Best overall response: Non-CR/non-PD ([1]; DEP (QD) Level 1 (4 mg) n = 2): 0 n (%); Best overall response: PD ([1]; DEP (QD) Level 1 (4 mg) n = 2): 2 (100.0) n (%); Best overall response: PR ([1]; DEP (QD) Level 1 (4 mg) n = 2): 0 n (%); Best overall response: SD ([1]; DEP (QD) Level 1 (4 mg) n = 2): 0 n (%); DCR (CR + PR + SD + non-CR/non-PD) ([1]; DEP (QD) Level 1 (4 mg) n = 2): 0 n (%); RR (CR + PR) ([1]; DEP (QD) Level 1 (4 mg) n = 2): 0 n (%); Best overall response: CR ([1]; DEP (QD) Level 2 (8 mg) n = 1): 0 n (%); Best overall response: NE ([1]; DEP (QD) Level 2 (8 mg) n = 1): 0 n (%); Best overall response: Non-CR/non-PD ([1]; DEP (QD) Level 2 (8 mg) n = 1): 0 n (%); Best overall response: PD ([1]; DEP (QD) Level 2 (8 mg) n = 1): 0 n (%); Best overall response: PR ([1]; DEP (QD) Level 2 (8 mg) n = 1): 0 n (%); Best overall response: SD ([1]; DEP (QD) Level 2 (8 mg) n = 1): 1 (100.0) n (%); DCR (CR + PR + SD + non-CR/non-PD) ([1]; DEP (QD) Level 2 (8 mg) n = 1): 1 (100.0) n (%); RR (CR + PR) ([1]; DEP (QD) Level 2 (8 mg) n = 1): 0 n (%); Best overall response: CR ([1]; DEP (QD) Level 3 (16 mg) n = 6): 0 n (%); Best overall response: NE ([1]; DEP (QD) Level 3 (16 mg) n = 6): 0 n (%); Best overall response: Non-CR/non-PD ([1]; DEP (QD) Level 3 (16 mg) n = 6): 0 n (%); Best overall response: PD ([1]; DEP (QD) Level 3 (16 mg) n = 6): 6 (100.0) n (%); Best overall response: PR ([1]; DEP (QD) Level 3 (16 mg) n = 6): 0 n (%); Best overall response: SD ([1]; DEP (QD) Level 3 (16 mg) n = 6): 0 n (%); DCR (CR + PR + SD + non-CR/non-PD) ([1]; DEP (QD) Level 3 (16 mg) n = 6): 0 n (%); RR (CR + PR) ([1]; DEP (QD) Level 3 (16 mg) n = 6): 0 n (%); Best overall response: CR ([1]; DEP (QD) Level 4 (24 mg) n = 3): 0 n (%); Best overall response: NE ([1]; DEP (QD) Level 4 (24 mg) n = 3): 0 n (%); Best overall response: Non-CR/non-PD ([1]; DEP (QD) Level 4 (24 mg) n = 3): 0 n (%); Best overall response: PD ([1]; DEP (QD) Level 4 (24 mg) n = 3): 2 (66.7) n (%); Best overall response: PR ([1]; DEP (QD) Level 4 (24 mg) n = 3): 0 n (%); Best overall response: SD ([1]; DEP (QD) Level 4 (24 mg) n = 3): 1 (33.3) n (%); DCR (CR + PR + SD + non-CR/non-PD) ([1]; DEP (QD) Level 4 (24 mg) n = 3): 1 (33.3) n (%); RR (CR + PR) ([1]; DEP (QD) Level 4 (24 mg) n = 3): 0 n (%); Best overall response: CR [1, 5]: 0 n (%); Best overall response: NE [1, 5]: 0 n (%); Best overall response: Non-CR/non-PD [1, 5]: 0 n (%); Best overall response: PD [1, 5]: 4 (66.7) n (%); Best overall response: PR [1, 5]: 0 n (%); Best overall response: SD [1, 5]: 2 (33.3) n (%); DCR (CR + PR + SD + non-CR/non-PD) [1, 5]: 2 (33.3) n (%); RR (CR + PR) [1, 5]: 0 n (%); Best overall response: CR [1, 6]: 0 n (%); Best overall response: NE [1, 6]: 0 n (%); Best overall response: Non-CR/non-PD [1, 6]: 0 n (%); Best overall response: PD [1, 6]: 4 (100.0) n (%); Best overall response: PR [1, 6]: 0 n (%); Best overall response: SD [1, 6]: 0 n (%); DCR (CR + PR + SD + non-CR/non-PD) [1, 6]: 0 n (%); RR (CR + PR) [1, 6]: 0 n (%); Patients with confirmed partial response ([1]; SAP): Four patients; Best overall response: CR [1, 7]: 0 n (%); Best overall response: NE [1, 7]: 0 n (%); Best overall response: Non-CR/non-PD [1, 7]: 0 n (%); Best overall response: PD [1, 7]: 5 (31.3) n (%); Best overall response: PR [1, 7]: 1 (6.3) n (%); Best overall response: SD [1, 7]: 10 (62.5) n (%); DCR (CR + PR + SD + non-CR/non-PD) [1, 7]: 11 (68.8) n (%); RR (CR + PR) [1, 7]: 1 (6.3) n (%); Best overall response: CR [1, 8]: 0 n (%); Best overall response: NE [1, 8]: 0 n (%); Best overall response: Non-CR/non-PD [1, 8]: 0 n (%); Best overall response: PD [1, 8]: 1 (14.3) n (%); Best overall response: PR [1, 8]: 0 n (%); Best overall response: SD [1, 8]: 6 (85.7) n (%); DCR (CR + PR + SD + non-CR/non-PD) [1, 8]: 6 (85.7) n (%); RR (CR + PR) [1, 8]: 0 n (%); Best overall response: CR [1, 9]: 0 n (%); Best overall response: NE [1, 9]: 0 n (%); Best overall response: Non-CR/non-PD [1, 9]: 0 n (%); Best overall response: PD [1, 9]: 12 (60.0) n (%); Best overall response: PR [1, 9]: 3 (15.0) n (%); Best overall response: SD [1, 9]: 5 (25.0) n (%); DCR (CR + PR + SD + non-CR/non-PD) [1, 9]: 8 (40.0) n (%); RR (CR + PR) [1, 9]: 3 (15.0) n (%); Confirmed PR ([1]; SAP cohort 1 (endometrial cancer with PIK3CA mutation), 1 of 16 patients): 6.3%; DCR ([1]; SAP cohort 2): 85.7%; DCR ([1]; SAP cohort 3): 40.0%; Confirmed PR ([1]; SAP cohort 3 (ovarian clear cell carcinoma), 3 of 20 patients): 15.0%; DCR ([1]; SAP, cohort 1): 68.8%; Best overall response: CR ([1]; Total N = 65): 0 n (%); Best overall response: NE ([1]; Total N = 65): 0 n (%); Best overall response: Non-CR/non-PD ([1]; Total N = 65): 0 n (%); Best overall response: PD ([1]; Total N = 65): 36 (55.4) n (%); Best overall response: PR ([1]; Total N = 65): 4 (6.2) n (%); Best overall response: SD ([1]; Total N = 65): 25 (38.5) n (%); DCR (CR + PR + SD + non-CR/non-PD) ([1]; Total N = 65): 29 (44.6) n (%); RR (CR + PR) ([1]; Total N = 65): 4 (6.2) n (%); DCR ([1]; dose level 2 in the DEP): 100%; Highest non-severely toxic dose ([2]; 4-week repeated oral dose): 1.2 mg/kg/day; Toxicity findings ([2]; repeated dosing): dysregulation of carbohydrate metabolism and atrophic changes in the lymphatic/hematopoietic organs and adipocytes; Reduction in the level of pPRAS40 [3]: > 50%; Anti-proliferative activity [4]: strong anti-proliferative activity
